System: MV-4-11 cells
Experiment: Gene expression microarray analysis (Affymetrix PrimeView) and GSEA
Format: cell-based, human
Details: ProbeSet 11758779_at; LIST B

Nc1ncn([C@@H]2O[C@H](CO)[C@@H](O)[C@H]2O)c(=O)n1 [azacitidine]
RFU, TMEM50B: 84.99 RFU
